Values of other authors, collected in patent publication US8475827B2, “Tissue implants for implantation and methods for preparing the same” (CryoLife, Inc., priority 2010, dated 2013).

Tested on: sensitive bacteria
Settings: literature review

Structure (SMILES): NCC[C@H](O)C(=O)N[C@@H]1C[C@H](N)[C@@H](O[C@H]2O[C@H](CN)[C@@H](O)[C@H](O)[C@H]2O)[C@H](O)[C@H]1O[C@H]1O[C@H](CO)[C@@H](O)[C@H](N)[C@H]1O [amikacin]
- minimum inhibitory concentration against sensitive bacteria (MIC) range: 0.125 to 32 µg/mL
